Common to all, as to assay: Post-emergence efficacy, Method A
What all share (assay type): in vivo

Test [1] deals with Amaranthus palmeri (AMAPA). As to conditions: evaluated after 13 days; for pest or weed control at 500 g/ha: Amaranthus palmeri, post-emergence, 312 h. Put shortly:
(§1)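 Post-emergence spray on 14-day-old glasshouse plants (24/16 °C day/night, 14 h photoperiod, 65% humidity). Test material was taken up in acetone and IF50 emulsifier mix, then diluted with sodium lauryl ether sulphate (0.25% or 1%) plus 1% ammonium sulphate. Damage was rated 13 days later, 100 = total.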

In test [2] the test system is Chenopodium album (CHEAL). As to conditions: evaluated after 13 days; for pest or weed control at 500 g/ha: Chenopodium album, post-emergence, 312 h. Put shortly: as §1
Test [3] deals with Digitaria sanguinalis (DIGSA). The conditions noted are these: evaluated after 13 days; for pest or weed control at 500 g/ha: Digitaria sanguinalis, post-emergence, 312 h. Summed up: as §1
The subject of test [4] is Echinochloa crus-galli (ECHCG). As to conditions: evaluated after 13 days; for pest or weed control at 500 g/ha: Echinochloa crus-galli, post-emergence, 312 h. Summed up:
as §1

The test system of the next test is Eleusine indica (ELEIN). As to conditions: evaluated after 13 days; for pest or weed control at 500 g/ha: Eleusine indica, post-emergence, 312 h. Summed up:
as §1

The subject of test [5] is Euphorbia heterophylla (EPHHL). The conditions noted are these: evaluated after 13 days; for pest or weed control at 500 g/ha: Euphorbia heterophylla, post-emergence, 312 h. Put shortly: as §1
For test [6], the system named is Ipomoea hederacea (IPOHE). The conditions noted are these: evaluated after 13 days; for pest or weed control at 500 g/ha: Ipomoea hederacea, post-emergence, 312 h. Put shortly: as §1
The next test deals with Lolium perenne (LOLPE). The conditions noted are these: evaluated after 13 days; for pest or weed control at 500 g/ha: Lolium perenne, post-emergence, 312 h. Put shortly:
as §1

A further test deals with Setaria faberi (SETFA). As to conditions: evaluated after 13 days; for pest or weed control at 500 g/ha: Setaria faberi, post-emergence, 312 h. Put shortly: as §1
Where [7] appears, read: Application Rate 500 g/Ha, Method A, read-out: Control of weed species after post-emergence application, AMAPA (100=total damage to plant; 0=no damage to plant).
[8] abbreviates: Application Rate 500 g/Ha, Method A, read-out: Control of weed species after post-emergence application, CHEAL (100=total damage to plant; 0=no damage to plant).
[9] abbreviates: Application Rate 500 g/Ha, Method A, read-out: Control of weed species after post-emergence application, DIGSA (100=total damage to plant; 0=no damage to plant).
The mark [10] stands for this setting: Application Rate 500 g/Ha, Method A, read-out: Control of weed species after post-emergence application, ECHCG (100=total damage to plant; 0=no damage to plant).
Setting [11] is: Application Rate 500 g/Ha, Method A, read-out: Control of weed species after post-emergence application, ELEIN (100=total damage to plant; 0=no damage to plant).
Where [12] appears, read: Application Rate 500 g/Ha, Method A, read-out: Control of weed species after post-emergence application, EPHHL (100=total damage to plant; 0=no damage to plant).
[13] abbreviates: Application Rate 500 g/Ha, Method A, read-out: Control of weed species after post-emergence application, IPOHE (100=total damage to plant; 0=no damage to plant).
[14] abbreviates: Application Rate 500 g/Ha, Method A, read-out: Control of weed species after post-emergence application, LOLPE (100=total damage to plant; 0=no damage to plant).
Where [15] appears, read: Application Rate 500 g/Ha, Method A, read-out: Control of weed species after post-emergence application, SETFA (100=total damage to plant; 0=no damage to plant).
Where [16] appears, read: Application rate 500 g/Ha, 100=total damage to plant, 0=no damage to plant, read-out: Control of weed species after post-emergence application, AMAPA.
Setting [17] is: Application rate 500 g/Ha, 100=total damage to plant, 0=no damage to plant, read-out: Control of weed species after post-emergence application, CHEAL.
[18] abbreviates: Application rate 500 g/Ha, 100=total damage to plant, 0=no damage to plant, read-out: Control of weed species after post-emergence application, DIGSA.
The mark [19] stands for this setting: Application rate 500 g/Ha, 100=total damage to plant, 0=no damage to plant, read-out: Control of weed species after post-emergence application, ECHCG.
[20] abbreviates: Application rate 500 g/Ha, 100=total damage to plant, 0=no damage to plant, read-out: Control of weed species after post-emergence application, ELEIN.
Where [21] appears, read: Application rate 500 g/Ha, 100=total damage to plant, 0=no damage to plant, read-out: Control of weed species after post-emergence application, EPHHL.
Where [22] appears, read: Application rate 500 g/Ha, 100=total damage to plant, 0=no damage to plant, read-out: Control of weed species after post-emergence application, IPOHE.
Where [23] appears, read: Application rate 500 g/Ha, 100=total damage to plant, 0=no damage to plant, read-out: Control of weed species after post-emergence application, LOLPE.
Setting [24] is: Application rate 500 g/Ha, 100=total damage to plant, 0=no damage to plant, read-out: Control of weed species after post-emergence application, SETFA.
The mark [25] stands for this setting: Application rate 500 g/Ha, 100=total damage to plant, 0=no damage to plant.

From patent US20220125051A1, “PRE-HARVEST DESICCATION METHOD” (SYNGENTA CROP PROTECTION AG, priority 2019, published 2022) come the findings set out here.

Read-outs that look alike come from different tables or passages of the source.

For the compound `O=S(=O)([N-]CC[n+]1ccc(-c2ncccn2)cn1)C(F)(F)F` [Compound A225], the pest or weed control at 500 g/ha in test [1] (setting [7]) was 100%; in test [2] (setting [8]) it was 90%; in [3] (setting [9]), 60%; in [4] (setting [10]), 30%; in the test with Eleusine indica (ELEIN) (setting [11]) it was 90%; in test [5] (setting [12]), 100%. For the same compound, the pest or weed control at 500 g/ha in [6] (setting [13]) was 70%; in the test on Lolium perenne (LOLPE) (setting [14]), 30%; with Setaria faberi (SETFA) (setting [15]), 30%.

Regarding `CN(C)c1cnc(-c2cc[n+](CCC(=O)[O-])nc2)nc1` [Compound A42], the pest or weed control at 500 g/ha in test [1] (setting [16]) worked out at 50%; in [2] (setting [17]), 0%; in test [3] (setting [18]), 50%; in [4] (setting [19]), 30%; with Eleusine indica (ELEIN) (setting [20]), 20%; in [5] (setting [21]) it was 30%. Further, the values for the pest or weed control at 500 g/ha (in test [6] (setting [22]); in the test on Lolium perenne (LOLPE) (setting [23]); in the test with Setaria faberi (SETFA) (setting [24])) were 20%, 0% and 50%, respectively.

In the case of `O=S(=O)([O-])CC[n+]1ccc(-c2ncc(F)cn2)cn1` [Compound A19], the pest or weed control at 500 g/ha in [1] (setting [16]) is 100%; in test [2] (setting [17]) it was 60%; in [3] (setting [18]), 50%; in test [4] (setting [19]), 40%; with Eleusine indica (ELEIN) (setting [20]), 60%; in [5] (setting [21]) it was 60%. For the same compound, the pest or weed control at 500 g/ha in [6] (setting [22]) worked out at 40%; in the test on Lolium perenne (LOLPE) (setting [23]) it was 20%; in the test on Setaria faberi (SETFA) (setting [24]), 60%.

As for `COc1cnc(-c2cc[n+](CCCS(=O)(=O)[O-])nc2)cn1` [Compound A78], the pest or weed control at 500 g/ha in [1] (setting [16]) is 0%; in [2] (setting [17]), 10%; in test [3] (setting [18]), 40%; in test [4] (setting [19]) it was 30%; in the test with Eleusine indica (ELEIN) (setting [20]), 30%; in [5] (setting [21]) it was 20%. Moreover, the pest or weed control at 500 g/ha in [6] (setting [22]) came to 20%; with Lolium perenne (LOLPE) (setting [23]) it was 20%; in the test with Setaria faberi (SETFA) (setting [24]), 40%.

As for `CC(CC(=O)O)[n+]1ccc(-c2ncccn2)cn1` (stereo not drawn) [Compound A40, 3-(4-pyrimidin-2-ylpyridazin-1-ium-1-yl)butanoic acid 2,2,2-trifluoroacetate], the pest or weed control at 500 g/ha in test [1] (setting [16]) was 90%; in [2] (setting [17]), 70%; in test [3] (setting [18]), 90%; in test [4] (setting [19]) it was 90%; in the test with Eleusine indica (ELEIN) (setting [20]) it was 90%; in test [5] (setting [21]) it was 90%. The values for the pest or weed control at 500 g/ha (in test [6] (setting [22]); with Lolium perenne (LOLPE) (setting [23]); in the test on Setaria faberi (SETFA) (setting [24])) were 100%, 90% and 100%, respectively.

Turning to `O=C(O)CC[n+]1ccc(-c2ccncc2F)cn1` [Compound A157], the pest or weed control at 500 g/ha in [1] (setting [7]) is 100%; in test [2] (setting [8]), 100%; in test [3] (setting [9]) it was 70%; in test [4] (setting [10]) it was 80%; with Eleusine indica (ELEIN) (setting [11]), 90%; in test [5] (setting [12]), 80%. In addition, the pest or weed control at 500 g/ha was determined as 60% in test [6] (setting [13]), 30% in the test with Lolium perenne (LOLPE) (setting [14]) and 80% in the test on Setaria faberi (SETFA) (setting [15]).

Consider `N#Cc1cnc(-c2cc[n+](CCS(=O)(=O)O)nc2)nc1` [Compound A25], for which the “Control of weed species after post-emergence application, AMAPA” value in test [1] (setting [25]) stood at 100. For the same compound, the “Control of weed species after post-emergence application, CHEAL” value in test [2] (setting [25]) was 60. Further, the “Control of weed species after post-emergence application, DIGSA” value in [3] (setting [25]) is reported as 50. Besides, in [4] (setting [25]), the “Control of weed species after post-emergence application, ECHCG” value came to 70. Further, the “Control of weed species after post-emergence application, ELEIN” value in the test with Eleusine indica (ELEIN) (setting [25]) was 50. Moreover, the “Control of weed species after post-emergence application, EPHHL” value in [5] (setting [25]) was 40. The “Control of weed species after post-emergence application, IPOHE” value in test [6] (setting [25]) was found to be 50. Also, the “Control of weed species after post-emergence application, LOLPE” value in the test with Lolium perenne (LOLPE) (setting [25]) is reported as 40. Besides, in the test on Setaria faberi (SETFA) (setting [25]), the “Control of weed species after post-emergence application, SETFA” value amounted to 60.

On to `Cc1cc(F)cnc1-c1cc[n+](CCCS(=O)(=O)[O-])nc1` [Compound A196], for which the pest or weed control at 500 g/ha in test [1] (setting [7]) was determined as 30%; in test [2] (setting [8]) it was 40%; in test [3] (setting [9]), 0%; in test [4] (setting [10]), 0%; in the test with Eleusine indica (ELEIN) (setting [11]), 10%; in [5] (setting [12]) it was 30%. Besides, the pest or weed control at 500 g/ha is 20% in test [6] (setting [13]), 0% in the test on Lolium perenne (LOLPE) (setting [14]) and 0% in the test with Setaria faberi (SETFA) (setting [15]).

For `CC(=O)c1cnc(-c2cc[n+](CCC(=O)[O-])nc2)nc1` [Compound A58], the pest or weed control at 500 g/ha in [1] (setting [16]) was 100%; in test [2] (setting [17]), 80%; in [3] (setting [18]), 90%; in test [4] (setting [19]), 60%; in the test with Eleusine indica (ELEIN) (setting [20]), 80%; in [5] (setting [21]), 60%. Further, the pest or weed control at 500 g/ha in test [6] (setting [22]) came to 10%; with Lolium perenne (LOLPE) (setting [23]) it was 50%; with Setaria faberi (SETFA) (setting [24]) it was 90%.

Regarding `O=S(=O)([O-])CC[n+]1ccc(-c2ncc(F)cc2F)cn1` [Compound A70], the pest or weed control at 500 g/ha amounted to 90% in test [1] (setting [16]); 70% in test [2] (setting [17]); 30% in [3] (setting [18]); 30% in [4] (setting [19]); 20% in the test on Eleusine indica (ELEIN) (setting [20]); 50% in [5] (setting [21]). Further, the pest or weed control at 500 g/ha was found to be 20% in test [6] (setting [22]), 20% in the test on Lolium perenne (LOLPE) (setting [23]) and 30% in the test with Setaria faberi (SETFA) (setting [24]).

`CO[N-]C(=O)CC[n+]1ccc(-c2ncccn2)cn1` [Compound A218]: the pest or weed control at 500 g/ha in [1] (setting [7]) was 100%; in test [2] (setting [8]), 80%; in test [3] (setting [9]) it was 70%; in [4] (setting [10]) it was 60%; in the test with Eleusine indica (ELEIN) (setting [11]) it was 60%; in [5] (setting [12]) it was 80%. The pest or weed control at 500 g/ha was found to be 70% in [6] (setting [13]), 70% in the test with Lolium perenne (LOLPE) (setting [14]) and 60% in the test on Setaria faberi (SETFA) (setting [15]).

Consider `O=C(O)CC[n+]1ccc(-c2ccccn2)cn1` [Compound A148], for which the pest or weed control at 500 g/ha in test [1] (setting [16]) was 100%; in test [2] (setting [17]) it was 40%; in test [3] (setting [18]), 50%; in [4] (setting [19]) it was 50%; with Eleusine indica (ELEIN) (setting [20]), 40%; in test [5] (setting [21]), 60%. In addition, the pest or weed control at 500 g/ha in [6] (setting [22]) is 20%; in the test with Lolium perenne (LOLPE) (setting [23]), 20%; in the test with Setaria faberi (SETFA) (setting [24]), 50%.
